In patent US20230085307A1, “PYRIDAZINONE COMPOUND AND HERBICIDE” (NISSAN CHEMICAL CORPORATION, priority 2019, published 2023):

Tests used:
lambsquarters [1] = assay: Test Example 5: herbicidal effect by foliage application, plastic box (Table 20, symbol O); format: in vivo, lambsquarters (Chenopodium album); settings: foliage application, 320 g/ha, evaluated three weeks after application
How it was run: (§1)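 Plants were sown into sterilized diluvial soil under about 1.5 cm cover and kept in a greenhouse at 25° C. to 30° C. Fourteen days on, foliage received an even spray of the diluted emulsion. Herbicidal or crop effect was judged three weeks afterwards.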

redroot pigweed [2] = assay: Test Example 5: herbicidal effect by foliage application, plastic box (Table 20, symbol N); format: in vivo, redroot pigweed (Amaranthus retroflexus); settings: foliage application, 320 g/ha, evaluated three weeks after application
How it was run: as §1

chickweed [3] = assay: Test Example 4: herbicidal effect by soil treatment (Table 19, symbol P); format: in vivo, common chickweed (Stellaria media); settings: amount of applied herbicide 320 g/ha
How it was run: (§2)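 Pre-emergence style soil spray: seeds under ~1.5 cm sterilized diluvial soil received a uniform coat of emulsion diluted to the predetermined herbicide amount. Greenhouse 25–30° C; readout at week three on previously defined criteria.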

redroot pigweed [4] = assay: Test Example 4: herbicidal effect by soil treatment (Table 19, symbol N); format: in vivo, redroot pigweed (Amaranthus retroflexus); settings: amount of applied herbicide 320 g/ha
How it was run: as §2

Italian ryegrass [5] = assay: Test Example 5: herbicidal effect by foliage application, plastic box (Table 20, symbol K); format: in vivo, Italian ryegrass (Lolium multiflorum); settings: foliage application, 320 g/ha, evaluated three weeks after application
How it was run: as §1

windgrass [6] = assay: Test Example 4: herbicidal effect by soil treatment (Table 19, symbol L); format: in vivo, windgrass (Apera spica-venti); settings: amount of applied herbicide 320 g/ha
How it was run: as §2

windgrass [7] = assay: Test Example 5: herbicidal effect by foliage application, plastic box (Table 20, symbol L); format: in vivo, windgrass (Apera spica-venti); settings: foliage application, 320 g/ha, evaluated three weeks after application
How it was run: as §1

chickweed [8] = assay: Test Example 5: herbicidal effect by foliage application, plastic box (Table 20, symbol P); format: in vivo, common chickweed (Stellaria media); settings: foliage application, 320 g/ha, evaluated three weeks after application
How it was run: as §1

southern crabgrass [9] = assay: Test Example 5: herbicidal effect by foliage application, plastic box (Table 20, symbol F); format: in vivo, southern crabgrass (Digitaria ciliaris); settings: foliage application, 320 g/ha, evaluated three weeks after application
How it was run: as §1

barnyard grass [10] = assay: Test Example 3: herbicidal effect by foliage application, Wagner pot (Table 18, symbol H); format: in vivo, barnyard grass (Echinochloa crus-galli); settings: amount of applied herbicide 320 g/ha
How it was run: (§3)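 Plants were sown in alluvial soil held under 0.1–0.5 cm standing water and grown 14 days in a greenhouse at 25–30 °C. An emulsifiable formulation, water-diluted to the set dose, was then sprayed onto the foliage, and effects were scored three weeks later using previously defined criteria.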

lambsquarters [11] = assay: Test Example 4: herbicidal effect by soil treatment (Table 19, symbol O); format: in vivo, lambsquarters (Chenopodium album); settings: amount of applied herbicide 320 g/ha
How it was run: as §2

wild oat [12] = assay: Test Example 4: herbicidal effect by soil treatment (Table 19, symbol I); format: in vivo, wild oat (Avena fatua); settings: amount of applied herbicide 320 g/ha
How it was run: as §2

blackgrass [13] = assay: Test Example 5: herbicidal effect by foliage application, plastic box (Table 20, symbol J); format: in vivo, blackgrass (Alopecurus myosuroides); settings: foliage application, 320 g/ha, evaluated three weeks after application
How it was run: as §1

velvetleaf [14] = assay: Test Example 4: herbicidal effect by soil treatment (Table 19, symbol M); format: in vivo, velvetleaf (Abutilon theophrasti); settings: amount of applied herbicide 320 g/ha
How it was run: as §2

barnyard grass [15] = assay: Test Example 4: herbicidal effect by soil treatment (Table 19, symbol H); format: in vivo, barnyard grass (Echinochloa crus-galli); settings: amount of applied herbicide 320 g/ha
How it was run: as §2

wild oat [16] = assay: Test Example 5: herbicidal effect by foliage application, plastic box (Table 20, symbol I); format: in vivo, wild oat (Avena fatua); settings: foliage application, 320 g/ha, evaluated three weeks after application
How it was run: as §1

rice flat sedge = assay: Test Example 3: herbicidal effect by foliage application, Wagner pot (Table 18, symbol E); format: in vivo, rice flat sedge (Cyperus iria); settings: amount of applied herbicide 320 g/ha
How it was run: as §3

barnyard grass [17] = assay: Test Example 5: herbicidal effect by foliage application, plastic box (Table 20, symbol H); format: in vivo, barnyard grass (Echinochloa crus-galli); settings: foliage application, 320 g/ha, evaluated three weeks after application
How it was run: as §1

persian speedwell [18] = assay: Test Example 5: herbicidal effect by foliage application, plastic box (Table 20, symbol R); format: in vivo, Persian speedwell (Veronica persica); settings: foliage application, 320 g/ha, evaluated three weeks after application
How it was run: as §1

southern crabgrass [19] = assay: Test Example 4: herbicidal effect by soil treatment (Table 19, symbol F); format: in vivo, southern crabgrass (Digitaria ciliaris); settings: amount of applied herbicide 320 g/ha
How it was run: as §2

green foxtail [20] = assay: Test Example 5: herbicidal effect by foliage application, plastic box (Table 20, symbol G); format: in vivo, green foxtail (Setaria viridis); settings: foliage application, 320 g/ha, evaluated three weeks after application
How it was run: as §1

persian speedwell [21] = assay: Test Example 4: herbicidal effect by soil treatment (Table 19, symbol R); format: in vivo, Persian speedwell (Veronica persica); settings: amount of applied herbicide 320 g/ha
How it was run: as §2

blackgrass [22] = assay: Test Example 4: herbicidal effect by soil treatment (Table 19, symbol J); format: in vivo, blackgrass (Alopecurus myosuroides); settings: amount of applied herbicide 320 g/ha
How it was run: as §2

Chinese sprangletop = assay: Test Example 3: herbicidal effect by foliage application, Wagner pot (Table 18, symbol D); format: in vivo, chinese sprangletop (Leptochloa chinensis); settings: amount of applied herbicide 320 g/ha
How it was run: as §3

Italian ryegrass [23] = assay: Test Example 4: herbicidal effect by soil treatment (Table 19, symbol K); format: in vivo, Italian ryegrass (Lolium multiflorum); settings: amount of applied herbicide 320 g/ha
How it was run: as §2

velvetleaf [24] = assay: Test Example 5: herbicidal effect by foliage application, plastic box (Table 20, symbol M); format: in vivo, velvetleaf (Abutilon theophrasti); settings: foliage application, 320 g/ha, evaluated three weeks after application
How it was run: as §1

green foxtail [25] = assay: Test Example 4: herbicidal effect by soil treatment (Table 19, symbol G); format: in vivo, green foxtail (Setaria viridis); settings: amount of applied herbicide 320 g/ha
How it was run: as §2

SMILES: CCCCOc1cccc(-c2sc3ccc(F)cc3c2-c2c(OC(=O)CCC)c(C)nn(C)c2=O)c1 [2-220]
- herbicidal effect on O: lambsquarters (criteria 0-5) (lambsquarters [1]): 3 (Herbicidal rate of 40% or more and less than 70%)
- herbicidal effect on N: redroot pigweed (criteria 0-5) (redroot pigweed [2]): 3 (Herbicidal rate of 40% or more and less than 70%)
- P: chickweed, herbicidal effect rating (chickweed [3]): 0 (Herbicidal rate of 5% or less (almost no effect))
- N: redroot pigweed, herbicidal effect rating (redroot pigweed [4]): 4 (Herbicidal rate of 70% or more and less than 90%)
- herbicidal effect on K: Italian ryegrass (criteria 0-5) (Italian ryegrass [5]): 0 (Herbicidal rate of 5% or less (almost no effect))
- L: windgrass, herbicidal effect rating (windgrass [6]): 0 (Herbicidal rate of 5% or less (almost no effect))
- herbicidal effect on L: windgrass (criteria 0-5) (windgrass [7]): 0 (Herbicidal rate of 5% or less (almost no effect))
- herbicidal effect on P: chickweed (criteria 0-5) (chickweed [8]): 4 (Herbicidal rate of 70% or more and less than 90%)
- herbicidal effect on F: southern crabgrass (criteria 0-5) (southern crabgrass [9]): 3 (Herbicidal rate of 40% or more and less than 70%)
- herbicidal effect on H: barnyard grass (barnyard grass [10]): 5 (Herbicidal rate of 90% or more (almost completely withered))
- O: lambsquarters, herbicidal effect rating (lambsquarters [11]): 0 (Herbicidal rate of 5% or less (almost no effect))
- I: wild oat, herbicidal effect rating (wild oat [12]): 0 (Herbicidal rate of 5% or less (almost no effect))
- herbicidal effect on J: blackgrass (criteria 0-5) (blackgrass [13]): 0 (Herbicidal rate of 5% or less (almost no effect))
- M: velvetleaf, herbicidal effect rating (velvetleaf [14]): 0 (Herbicidal rate of 5% or less (almost no effect))
- H: barnyard grass, herbicidal effect rating (barnyard grass [15]): 1 (Herbicidal rate of 5% or more and less than 20%)
- herbicidal effect on I: wild oat (criteria 0-5) (wild oat [16]): 0 (Herbicidal rate of 5% or less (almost no effect))
- herbicidal effect on E: rice flat sedge (rice flat sedge): 3 (Herbicidal rate of 40% or more and less than 70%)
- herbicidal effect on H: barnyard grass (criteria 0-5) (barnyard grass [17]): 3 (Herbicidal rate of 40% or more and less than 70%)
- herbicidal effect on R: persian speedwell (criteria 0-5) (persian speedwell [18]): 4 (Herbicidal rate of 70% or more and less than 90%)
- F: southern crabgrass, herbicidal effect rating (southern crabgrass [19]): 0 (Herbicidal rate of 5% or less (almost no effect))
- herbicidal effect on G: green foxtail (criteria 0-5) (green foxtail [20]): 3 (Herbicidal rate of 40% or more and less than 70%)
- R: persian speedwell, herbicidal effect rating (persian speedwell [21]): 0 (Herbicidal rate of 5% or less (almost no effect))
- J: blackgrass, herbicidal effect rating (blackgrass [22]): 0 (Herbicidal rate of 5% or less (almost no effect))
- herbicidal effect on D: Chinese sprangletop (Chinese sprangletop): 3 (Herbicidal rate of 40% or more and less than 70%)
- K: Italian ryegrass, herbicidal effect rating (Italian ryegrass [23]): 0 (Herbicidal rate of 5% or less (almost no effect))
- herbicidal effect on M: velvetleaf (criteria 0-5) (velvetleaf [24]): 1 (Herbicidal rate of 5% or more and less than 20%)
- G: green foxtail, herbicidal effect rating (green foxtail [25]): 0 (Herbicidal rate of 5% or less (almost no effect))
